Measurements: patent publication US8846947B2, “Benzimidazoles and related analogs as sirtuin modulators” (GlaxoSmithKline LLC, priority 2008, dated 2014)
Like-named read-outs stand apart in the source and are kept apart here.

Biological target: T1, SIRT1 (Homo sapiens, UniProt Q96EB6)
T1 sequence (Q96EB6 1-747): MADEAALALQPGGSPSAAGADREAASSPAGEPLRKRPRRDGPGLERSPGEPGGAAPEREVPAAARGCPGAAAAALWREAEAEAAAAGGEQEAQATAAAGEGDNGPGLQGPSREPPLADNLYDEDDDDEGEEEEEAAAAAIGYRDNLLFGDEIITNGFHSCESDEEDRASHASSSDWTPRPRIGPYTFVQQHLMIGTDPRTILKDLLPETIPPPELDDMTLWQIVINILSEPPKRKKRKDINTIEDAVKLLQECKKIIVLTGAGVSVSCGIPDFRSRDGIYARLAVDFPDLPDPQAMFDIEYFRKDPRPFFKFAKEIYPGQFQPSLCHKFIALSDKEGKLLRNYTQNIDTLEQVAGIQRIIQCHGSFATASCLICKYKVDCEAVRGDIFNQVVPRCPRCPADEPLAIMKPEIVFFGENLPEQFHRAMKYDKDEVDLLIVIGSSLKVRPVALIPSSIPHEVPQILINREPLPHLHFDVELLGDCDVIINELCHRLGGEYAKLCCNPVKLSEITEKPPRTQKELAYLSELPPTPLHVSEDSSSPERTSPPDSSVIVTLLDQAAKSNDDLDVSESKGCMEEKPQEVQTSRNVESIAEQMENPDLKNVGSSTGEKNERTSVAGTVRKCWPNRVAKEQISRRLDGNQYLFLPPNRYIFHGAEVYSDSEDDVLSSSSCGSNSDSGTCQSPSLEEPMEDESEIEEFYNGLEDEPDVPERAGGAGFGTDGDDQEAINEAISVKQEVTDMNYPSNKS
Assay: Mass spectrometry based SIRT1 deacetylase activation assay (acetylated p53-derived peptide substrate)
Type: biochemical
Text: A mass spectrometry based assay was used to identify modulators of SIRT1 activity. The mass spectrometry based assay utilizes a peptide having 20 amino acid residues as follows: Ac-EE-K(biotin)-GQSTSSHSK(Ac)NleSTEG-K(5TMR)-EE-NH2 (SEQ ID NO: 1) wherein K(Ac) is an acetylated lysine residue and Nle is a norleucine. The peptide is labeled with the fluorophore 5TMR (excitation 540 nm/emission 580 nm) at the C-terminus. The sequence of the peptide substrate is based on p53 with several modifications. In addition, the methionine residue naturally present in the sequence was replaced with the norleucine because the methionine may be susceptible to oxidation during synthesis and purification.
The mass spectrometry assay is conducted as follows: 0.5 μM peptide substrate and 120 μM βNAD^+ is incubated with 10 nM SIRT1 for 25 minutes at 25° C. in a reaction buffer (50 mM Tris-acetate pH 8, 137 mM NaCl, 2.7 mM KCl, 1 mM MgCl2, 5 mM DTT, 0.05% BSA). Test compounds may be added to the reaction as described above. […] After the 25 minute incubation with SIRT1, 10 μL of 10% formic acid is added to stop the reaction. Reactions are sealed and frozen for later mass spec analysis. Determination of the mass of the substrate peptide allows for precise determination of the degree of acetylation (i.e. starting material) as compared to deacetylated peptide (product).
A control for inhibition of sirtuin activity is conducted by adding 1 μL of 500 mM nicotinamide as a negative control at the start of the reaction (e.g., permits determination of maximum sirtuin inhibition). A control for activation of sirtuin activity is conducted using 10 nM of sirtuin protein, with 1 μL of DMSO in place of compound, to determine the amount of deacetylation of the substrate at a given timepoint within the linear range of the assay. This timepoint is the same as that used for test compounds and, within the linear range, the endpoint represents a change in velocity.
For the above assay, SIRT1 protein was expressed and purified as follows. […] The protein was expressed by induction with 1 mM IPTG as an N-terminal His-tag fusion protein at 18° C. overnight and harvested at 30,000×g. Cells were lysed with lysozyme in lysis buffer (50 mM Tris-HCl, 2 mM Tris[2-carboxyethyl]phosphine (TCEP), 10 μM ZnCl2, 200 mM NaCl) and further treated with sonication for 10 min for complete lysis. The protein was purified over a Ni-NTA column (Amersham) and fractions containing pure protein were pooled, concentrated and run over a sizing column (Sephadex S200 26/60 global). The peak containing soluble protein was collected and run on an Ion-exchange column (MonoQ). Gradient elution (200 mM-500 mM NaCl) yielded pure protein. This protein was concentrated and dialyzed against dialysis buffer (20 mM Tris-HCl, 2 mM TCEP) overnight. The protein was aliquoted and frozen at −80° C. until further use.
Sirtuin modulating compounds that activated SIRT1 were identified using the assay described above and are shown below in Table 1. The EC1.5 values for the activating compounds are represented by A (EC1.5<1.0 uM), B (EC1.5 1-25 uM), C (EC1.5 >25 uM). The percent maximum fold activation is represented by A (Fold activation >200%) or B (Fold Activation <200%).

[1] = 0.5 μM peptide substrate, 120 μM βNAD+, 10 nM SIRT1, 25 min at 25° C.
[2] = 0.5 μM peptide substrate, 120 μM βNAD+, 10 nM SIRT1, 25 min at 25° C., read-out: EC1.5
[3] = 0.5 μM peptide substrate, 120 μM βNAD+, 10 nM SIRT1, 25 minutes at 25° C.

EC1.5	Fold Act. (percent maximum fold activation)	Fold Act. (percent maximum fold activation) [1]	EC1.5 [2] [nM]	EC1.5 [3]	Fold Act. (percent maximum fold activation) [3]	SMILES
B (EC1.5 1-25 uM)	A (Fold activation >200%)	–	–	–	–	O=C(NC1CCOC1=O)c1cccc2[nH]c(-c3cccc(C(F)(F)F)c3)nc12 (stereo not drawn) [Compound 273]
–	–	B (Fold Activation <200%)	< 1000	–	–	O=C(Nc1nccs1)c1cccc2[nH]c(-c3ccnc(N4CCCC4)c3)nc12 [Compound 446]
A (EC1.5<1.0 uM)	A (Fold activation >200%)	–	–	–	–	O=C(Nc1cccnc1)c1cccc2[nH]c(-c3cccc(C(F)(F)F)c3)nc12 [Compound 234]
B (EC1.5 1-25 uM)	A (Fold activation >200%)	–	–	–	–	O=C(Nc1cccnc1)c1cccc2[nH]c(-c3cccc(N4CCOCC4)n3)nc12 [Compound 389]
–	–	A (Fold activation >200%)	< 1000	–	–	O=C(Nc1nccs1)c1cccc2[nH]c(-c3cccc4c3OC(F)(F)O4)nc12 [Compound 427]
–	–	–	–	A (EC1.5<1.0 uM)	A (Fold activation >200%)	O=C(Nc1ccc(CN2CCOCC2)nc1)c1cccc2[nH]c(-c3cc(F)ccc3C(F)(F)F)nc12 [Compound 686, 2-(5-fluoro-2-(trifluoromethyl)phenyl)-N-(6-(morpholinomethyl)pyridin-3-yl)-1H-benzo[d]imidazole-4-carboxamide]
–	–	–	–	A (EC1.5<1.0 uM)	A (Fold activation >200%)	O=C(Nc1nccs1)c1cccc2[nH]c(-c3ccc(CN4CCCC4)cc3C(F)(F)F)nc12 [Compound 828, 2-(4-(pyrrolidin-1-ylmethyl)-2-(trifluoromethyl)phenyl)-N-(thiazol-2-yl)-1H-benzo[d]imidazole-4-carboxamide]
–	–	–	–	A (EC1.5<1.0 uM)	A (Fold activation >200%)	O=C(Nc1cccnc1)c1cc(N2CCOCC2)cc2[nH]c(-c3ccc(F)cc3C(F)F)nc12 [Compound 751]
A (EC1.5<1.0 uM)	A (Fold activation >200%)	–	–	–	–	O=C(Nc1nccs1)c1cccc2[nH]c(-c3cccc(OC(F)(F)F)c3)nc12 [Compound 204]
–	–	A (Fold activation >200%)	< 1000	–	–	CN1CCN(c2cccc(-c3nc4c(C(=O)Nc5nccs5)cccc4[nH]3)c2)CC1 [Compound 527]
B (EC1.5 1-25 uM)	A (Fold activation >200%)	–	–	–	–	O=C(Nc1nccs1)c1cccc2[nH]c(-c3c(F)cccc3C(F)(F)F)nc12 [Compound 264]
–	–	A (Fold activation >200%)	1000 to 25000	–	–	CC1(C)Cc2cc(-c3nc4c(C(=O)Nc5nccs5)cccc4[nH]3)ccc2O1 [Compound 445]
B (EC1.5 1-25 uM)	A (Fold activation >200%)	–	–	–	–	Cc1cc(NC(=O)c2cccc3[nH]c(-c4cccc(C(F)(F)F)c4)nc23)n(C)n1 [Compound 278]
–	–	A (Fold activation >200%)	< 1000	–	–	O=C(Nc1cccc(OCC(O)CO)c1)c1cccc2[nH]c(-c3ccc(Cl)cc3C(F)(F)F)nc12 (stereo not drawn) [Compound 479]
–	–	–	–	A (EC1.5<1.0 uM)	A (Fold activation >200%)	O=C(Nc1ccc(CN2CCCC2)cn1)c1cccc2[nH]c(-c3cc(F)ccc3C(F)(F)F)nc12 [Compound 625]
–	–	B (Fold Activation <200%)	1000 to 25000	–	–	O=C(Nc1cnccn1)c1cccc2[nH]c(-c3ccccc3OCCN3CCOCC3)nc12 [Compound 489]
–	–	A (Fold activation >200%)	< 1000	–	–	Cc1nc(NC(=O)c2cccc3[nH]c(-c4cnc5c(c4)OCCN5C)nc23)sc1C [Compound 458]
–	–	–	–	A (EC1.5<1.0 uM)	A (Fold activation >200%)	O=C(Nc1nccs1)c1cccc2[nH]c(-c3ccc(N4CC[C@@H](F)C4)cc3C(F)(F)F)nc12 [Compound 608]
B (EC1.5 1-25 uM)	A (Fold activation >200%)	–	–	–	–	O=C(Nc1cccc2[nH]c(-c3cccc(C(F)(F)F)c3)nc12)c1cnccn1 [Compound 335]
–	–	A (Fold activation >200%)	1000 to 25000	–	–	CS(=O)(=O)c1cc(Cl)ccc1-c1nc2c(C(=O)Nc3nccs3)cccc2[nH]1 [Compound 520]
–	–	A (Fold activation >200%)	< 1000	–	–	Cc1cc(NC(=O)c2cccc3[nH]c(-c4ccc(F)cc4C(F)(F)F)nc23)no1 [Compound 464]
B (EC1.5 1-25 uM)	B (Fold Activation <200%)	–	–	–	–	O=C(Nc1nccs1)c1cccc2[nH]c(-c3cc(F)cc(C(F)(F)F)c3)nc12 [Compound 210]
–	–	–	–	A (EC1.5<1.0 uM)	A (Fold activation >200%)	C[C@@H]1CN(c2ccc(-c3nc4c(C(=O)Nc5cccnc5)cccc4[nH]3)c(C(F)(F)F)c2)C[C@H](C)O1 [Compound 604]
–	–	–	–	A (EC1.5<1.0 uM)	A (Fold activation >200%)	Cc1cnc(NC(=O)c2cncc3[nH]c(-c4ccccc4C(F)(F)F)nc23)s1 [Compound 639]
A (EC1.5<1.0 uM)	A (Fold activation >200%)	–	–	–	–	Cc1cc(-c2nc3c(C(=O)Nc4nccs4)cccc3[nH]2)n(C)n1 [Compound 281]
–	–	B (Fold Activation <200%)	1000 to 25000	–	–	O=C(Nc1ccccn1)c1cccc2[nH]c(-c3cc(F)cc(Cl)c3OCCN3CCOCC3)nc12 [Compound 544]
–	–	–	–	A (EC1.5<1.0 uM)	A (Fold activation >200%)	O=C(Nc1nccs1)c1cccc2[nH]c(-c3ccc(OC[C@H](O)CO)cc3C(F)(F)F)nc12 [Compound 742]
–	–	A (Fold activation >200%)	< 1000	–	–	Cc1nc(N2CCOCC2)sc1-c1nc2c(C(=O)Nc3nccs3)cccc2[nH]1 [Compound 411]
B (EC1.5 1-25 uM)	A (Fold activation >200%)	–	–	–	–	O=C(Nc1nccs1)c1cccc2[nH]c(-c3ccccn3)nc12 [Compound 215]
–	–	–	–	A (EC1.5<1.0 uM)	A (Fold activation >200%)	Cc1ccc(-c2nc3c(C(=O)Nc4cccc(CN5CCOCC5)n4)cccc3[nH]2)cn1 [Compound 815, 2-(6-methylpyridin-3-yl)-N-(6-(morpholinomethyl)pyridin-2-yl)-1H-benzo[d]imidazole-4-carboxamide]
